Measured values published in the METLIN SMRT retention time set (Domingo-Almenara et al. 2019).

Assay: gradient 5% acetonitrile 3 min, to 50% in 2 min, to 85% in 15 min, held 3 min, 100 µL/min
Conditions: column: Zorbax Extend-C18 2.1 x 50 mm; eluents: water / acetonitrile, 0.1% formic acid
How it was run: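 Each retention time is based on an adduct peak selected computationally and verified by manual inspection. Measurements used HPLC–quadrupole time-of-flight mass spectrometry in positive and negative ionization mode on mixtures of ~100 pure standards. Chromatography ran on a Zorbax Extend-C18 column (2.1 × 50 mm, 1.8 μm) at 100 μL/min with water and acetonitrile, each containing 0.1% formic acid, and dead and dwell volumes of 40 μL and 900 μL.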

| RP-LC retention time [s] | SMILES |
| --- | --- |
| 808 | C/C=C1\NC(=O)[C@H]2CSSCC/C=C/[C@H](CC(=O)N[C@H](C(C)C)C(=O)N2)OC(=O)C(C(C)C)NC1=O (some centres undefined) |
| 1060 | COc1ccc(C(C)NC(=O)C2CCN(c3nccnc3Sc3ccc(C)cc3)CC2)cc1 (centres undefined) |
| 579 | O=C(Cn1c(CN2CCOCC2)nc2ccccc21)N1CCCC1 |
| 836 | Cc1ccccc1CNC(=O)c1ccc2c(c1)nc1n2CCN(C2CCCCC2)C1=O |
| 632 | O=C(Cn1cc(-c2ccc(F)cc2)oc1=O)NC1CCN(Cc2ccccc2)CC1 |
| 728 | CC(C)n1cnc(S(=O)(=O)N2CCC(C(=O)Nc3ccc(F)cc3F)CC2)c1 |
| 716 | Cc1cccc2nnc(N3CCN(C(=O)c4ccc(C(F)(F)F)cc4)CC3)n12 |
| 789 | Cc1oc(C2CCN(S(=O)(=O)c3ccc(F)cc3)CC2)nc1C(=O)N1CCOCC1 |
| 617 | O=C1CCN(C(=O)c2ccoc2)CCCCCCN1 |
| 868 | COc1cc(NS(=O)(=O)c2ccc(NC(=O)c3ccc(Cl)cc3)cc2)nc(OC)n1 |
| 824 | O=C(c1cc(S(=O)(=O)N2CCCC(C(=O)N3CCCCCC3)C2)c[nH]1)N1CCCCCC1 (centres undefined) |
| 737 | COc1cccc(CNC(=O)C2CCCN(C(=O)C3Sc4ccccc4NC3=O)C2)c1 (centres undefined) |
| 572 | CC(=O)Nc1ccc(NC(=O)[C@H]2C[C@H]3CCCN3[C@@]23C(=O)N(C)c2ccccc23)cc1 |
| 836 | CCOC(=O)Cc1nnc(-c2cc(OC)cc(OC)c2)o1 |
| 578 | Cn1nc(C(=O)N2CCCCC2)c2c1CCN(C(=O)CCC(=O)NCCN1CCCC1)C2 |
| 825 | Clc1ccccc1C1Cn2cnc(-c3nc(-c4cccnc4)no3)c2CO1 (centres undefined) |
| 855 | CC1CCCCN1S(=O)(=O)c1ccc2c(c1)CCC(=O)N2CC(=O)NCc1ccc(F)cc1 (centres undefined) |
| 616 | COC(=O)NCc1nnnn1-c1ccc(OC)cc1 |
| 654 | CCOCCCNC(=O)C1CCN(c2nc3cccnc3s2)CC1 |
| 731 | CCn1c(N2CCCC(C(=O)NCc3ccco3)C2)cc(=O)n(C)c1=O (centres undefined) |
| 1040 | Cc1sc2ncnc(SCC(=O)c3ccc4c(c3)OCCO4)c2c1C |
| 951 | O=C(Nc1ccc(F)cc1Cl)c1cnc(-c2ccc(F)cc2)nc1-c1ccncc1 |

| RP-LC retention time [s] | SMILES |
| --- | --- |
| 858 | CN(CCc1noc(-c2ccccc2)n1)C(=O)Nc1ccc(F)cc1F |
| 939 | Cc1c(-c2nn3c(Cc4ccccc4)nnc3s2)nnn1-c1ccccc1 |
| 594 | CCOc1ccccc1NC(=O)CN1CCC(c2nnc(-c3ccco3)s2)CC1 |
| 928 | O=C(Nc1ccc2c(c1)C(=O)Nc1ccccc1O2)c1nc2ccccc2s1 |
| 1220 | Fc1ccc(CNc2ccc(-c3nc(-c4ccc(F)cc4)no3)cn2)cc1 |
| 603 | O=C(NCC1CCN(Cc2cccs2)CC1)C(=O)Nc1ccc(C(F)(F)F)cc1 |
| 795 | Cc1ccc(OCC(=O)N(Cc2ccc(N(C)C)cc2)Cc2ccco2)cc1 |
| 1130 | COC(=O)c1c(C)c(C(=O)C(C)N(CCC(C)C)C(=O)c2ccccc2Cl)c(C)n1C (centres undefined) |
| 922 | Cc1cc(C(=O)Nc2ccc(C)c(F)c2)n(CC(=O)Nc2ccc(F)cc2)n1 |
| 716 | CCOC(=O)N1CCN(C(=O)CSc2ccc(-c3ccc(OC)cc3)nn2)CC1 |
| 663 | CCNC(=O)C1CCc2sc(C(=O)N3CCCC3)cc2C1 (centres undefined) |
| 1250 | Cc1ccc(-c2csc(Cc3nc(-c4ccccc4)no3)n2)cc1 |
| 841 | CC(C)Sc1ccc(CC(=O)NCC(C)(O)c2ccccc2)cc1 (centres undefined) |
| 960 | Cc1cc(OCC(=O)Nc2ccc3c(c2)OCO3)nc(-c2ccc(F)cc2)n1 |
| 597 | CCc1nnc2nc(N3CCN(C(=O)c4ccccc4)CC3)cc(C)n12 |
| 1040 | CC(C)c1cccc(NC(=O)c2nc(N3CCSCC3)c3cnn(C)c3n2)c1 |
| 883 | CCC(C)NC(=O)NC1CCN(C2=NS(=O)(=O)C(c3ccc(Cl)cc3)=C2C)CC1 (centres undefined) |
| 919 | CCc1noc(-c2ccc(-n3cnc(C(=O)NC(C)c4ccccc4)c3)nc2)n1 (centres undefined) |
| 745 | O=C1COc2cc(S(=O)(=O)N3CCCC3C(=O)NCc3ccc(F)cc3)c(Cl)cc2N1 (centres undefined) |
| 877 | COc1cccc2c1OC1(C)CC2C(S(=O)(=O)c2ccc(Cl)cc2)C(=O)N1 (centres undefined) |
| 1070 | CSc1ccc(-c2noc(Cc3nnc(-c4ccc(F)cc4)o3)n2)cc1 |
| 971 | CCn1nnc2ccc(-c3noc(-c4ccc(C#N)cc4)n3)cc21 |

| RP-LC retention time [s] | SMILES |
| --- | --- |
| 824 | CCc1ccccc1S(=O)(=O)N1CCC(c2cc(N)on2)CC1 |
| 799 | Cc1ccccc1Nc1c(-c2ccccc2)nc2ccc(Br)cn12 |
| 848 | O=C(CCc1conc1-c1ccc(F)cc1)NCc1ccc2c(c1)OCO2 |
| 903 | CC(C)N1C(=O)C(C)(C(=O)Nc2ccc(Cl)cc2)Oc2cccnc21 (centres undefined) |
| 826 | O=C(NCCC1=CCCCC1)C(=O)NCC1CCN(S(=O)(=O)C2CC2)CC1 |
| 933 | COc1cc(OC)cc(-n2nnc(-c3nsc(Nc4ccc(OC)c(OC)c4)n3)c2C)c1 |
| 1180 | O=S(=O)(c1ccccc1Cl)N1CCc2nc(-c3ccc(Cl)cc3)ncc2C1 |
| 632 | CCn1cc(S(=O)(=O)N2CC(n3cc(C(=O)N4CCOCC4)nn3)C2)cn1 |
| 637 | COCCN1C(=O)Cc2ccccc2C1C(=O)NCc1ccc(C)o1 (centres undefined) |
| 679 | Cc1ccn2cc(C(=O)NCc3ccc4c(c3)OCO4)nc2c1 |
| 823 | Cc1cc(C)c2sc(N(Cc3cccnc3)C(=O)c3snnc3C)nc2c1 |
| 1060 | O=C1C2N=NN(Cc3nc(-c4ccccc4Br)no3)C2C(=O)N1c1ccc2c(c1)CCC2 (centres undefined) |
| 781 | CCC(C)C(=O)N1CCc2[nH]nc(C(=O)NCCCc3ccccc3)c2C1 (centres undefined) |
| 843 | Cc1ccc(-c2csc(Nc3cc(C)ccn3)n2)cc1 |
| 951 | CCOc1ccc(/C=C/c2nn3c(-c4cccnc4)nnc3s2)cc1 |
| 615 | CCNC(=O)N1CCCC1c1cc(C)no1 (centres undefined) |
| 629 | COc1cc(Nc2nc(C(=O)NCCN(C)C)cc3occc23)cc(OC)c1OC |
| 802 | CCOc1ccc(NC(=O)N2CCN(c3ccc(=O)n(-c4ccc(C)cc4)n3)CC2)cc1 |
| 763 | Cc1ccc(C)c(NC(=O)N2CCC3(CC2)NC(=O)c2ccccc2N3C)c1 |
| 624 | CCCN1CCN(C(=O)CN2C(=O)C(C)(C)c3cc(C)ccc32)CC1 |
| 797 | O=C(NC1CCN(c2cc(-c3cccs3)[nH]n2)C1)c1ccc(F)c(Cl)c1 (centres undefined) |
| 803 | CN1C(=O)c2cc(C(=O)N3CCN(c4ccccc4)CC3)nn2CC1(C)C(=O)NC1CCCCC1 (centres undefined) |

| RP-LC retention time [s] | SMILES |
| --- | --- |
| 695 | O=C1CCCc2cc(S(=O)(=O)N3CCC(C(=O)NCc4cccs4)CC3)ccc2N1 |
| 664 | O=C(NCCN1CCOCC1)c1csc(N2CCN(c3ccc(F)cc3)CC2)n1 |
| 915 | COc1ccc(C)cc1NC(=O)N1CCN(c2ccc(=O)n(-c3ccc(C)cc3)n2)CC1 |
| 811 | Cc1cccc(NC(=O)N2C[C@@H](F)C[C@H]2C(=O)N2CCc3ccccc3C2)c1C |
| 799 | Cn1cccc1C(=O)N1CCC(OCc2nc(C3CC3)no2)CC1 |
| 567 | Cc1oc2ncnc(N3CCOCC3)c2c1C(=O)N1CCN(c2ccccn2)CC1 |
| 596 | Cc1nc(-c2cccc(C(=O)NC(C)C)c2)no1 |
| 679 | Cc1ccc(-n2nc(N3CCCN(C(=O)c4n[nH]c5c4CCCC5)CC3)ccc2=O)cc1 |
| 628 | O=C1C(c2ccncc2)N(Cc2ccco2)C(=O)CN1c1ccccc1 (centres undefined) |
| 642 | Cc1[nH]c2ccc(-c3nnc(SCC(=O)NCc4nc5ccccc5[nH]4)o3)cc2c1C |
| 852 | COc1ccc2[nH]cc(CCNC(=O)c3cc4n(n3)CCCN(Cc3ccc(F)cc3)C4=O)c2c1 |
| 1060 | CCc1ccc(N2CC(c3noc(-c4ccc5c(c4)OCO5)n3)CC2=O)cc1 (centres undefined) |
| 902 | CCN(CC)C(=O)c1sc(-c2cn(C(C)C)c3ncccc23)nc1C |
| 669 | Cc1ccc(CN(CC(=O)N2CCNCC2)C(=O)c2sccc2C)cc1C |
| 777 | O=C(Cc1csc(NC(=O)c2cnccn2)n1)Nc1cccc(C(F)(F)F)c1 |
| 769 | CNC(=O)c1ccc2c(c1)CCCN2S(=O)(=O)c1ccccc1 |
| 577 | Cc1ccc2c(Nc3ccc4c(c3)OCCO4)c(C(=O)N3CCOCC3)cnc2n1 |
| 623 | CCC1c2nccn2CCCN1C(=O)CCc1c(C)noc1C (centres undefined) |
| 723 | CCN(CC)c1ccc(NC(=O)Cn2cnc3c(sc4nc(-c5ccccc5)ccc43)c2=O)c(C)c1 |
| 770 | N#Cc1nc(-c2ccco2)oc1N1CCN(C(=O)c2ccccc2F)CC1 |
| 610 | CCOc1cc(=O)n2c(c1C(=O)NCC1CCCO1)CCCCC2 (centres undefined) |

| SMILES | RP-LC retention time [s] |
| --- | --- |
| CCCn1cc(C(=O)NCCN2CCOCC2)c2cccnc21 | 586 |
| COc1ccc(NC(=O)C2c3ccccc3C(=O)N3CCC(C)CC23)c(OC)c1 (centres undefined) | 867 |
